Read-outs that look alike come from different tables or passages of the source.
Columns and labels:
[1] = NHP; cited from earlier work
C3b = target: T1, C3b (Homo sapiens, UniProt P01024); assay: SPR single-cycle kinetic analysis of compstatin analogs on immobilized C3b; settings: C3b surface 3000-5000 RU, 25° C., PBS-T, 1:1 binding model
T1 construct: a two-chain molecule consisting of a β chain (residues 1 to about 645) and an α-chain (residues 650-1,641)
Description: Individual injections within a cycle were 2 min long with a 5-min dissociation between injections. After the end of the last injection, a 40-min dissociation time was allowed. […] Each assay was performed at least twice.

baboon albumin = assay: SPR of albumin binding to immobilized ABM2-Cp20 (baboon albumin); settings: baboon albumin 6.3-100 μM over immobilized biotinylated ABM2-Cp20; read-out: Apparent binding affinity
Description: Streptavidin was immobilized on all flow cells of CM5 sensor chips (GE Healthcare) using standard amine coupling under 30° C. […] Sets of five increasing concentrations (6.3-100 μM) of albumin from different species (human, mouse, bovine, rabbit and baboon) were injected over the chip surface (FIG. 2). Data were recorded at 25° C. using PBS-T (10 mM sodium phosphate, 150 mM NaCl, 0.005% Tween-20, pH 7.4) as running buffer. Data were processed in Scrubber (v2.0c; Bio-Logic Software, Campbell, Australia); the signals from an untreated flow cell and buffer blank injections were subtracted. Apparent binding affinities (KD app) were calculated by fitting the steady state responses to a single-binding-site model.

[2] = compared with parent peptide
[3] = Plasma protein binding by rapid equilibrium dialysis (RED); format: in vitro ADME; settings: human, 37° C.; for fraction unbound at 24 h, 5 μM: peptide 5 μM; for fraction unbound at 24 h, 10 μM: peptide 10 μM
Description: A rapid equilibrium dialysis (RED) device with inserts (MWCO 8 K) was used (Thermo Scientific). C3-depleted serum (product no. A314) was purchased from Complement Technology, Tyler, Tex. Purified C3 (Complement Technology, A113c) was added to C3-depleted serum at a defined, physiologically relevant concentration (5 μM) to maintain the sample matrix and inhibitor-target ratio in comparative experiments (referred to as C3-positive serum).
Equilibrium dialysis using RED device was performed to determine the plasma protein binding. The inserts were soaked in water for 10 min before discarding the water (twice), and then used immediately (Waters et al., 2008, J. Pharm. Sci. 97, 4586). A mixture of 90 μL C3-depleted or C3-positive serum and 10 μL compstatin sample (5 or 10 μM) in PBS buffer (10% DMSO, 0.5% Tween 20, 0.2% sodium azide) was placed in the plasma chamber, and 300 μL PBS buffer (1% DMSO and 0.05% Tween 20) was placed in the buffer chamber. The final DMSO concentration of the dialysis system was 1%. The plate was covered with a sealing tape and incubated at 37° C. on an orbital shaker (200 rpm) for 24 h. Each sample was analyzed at least twice.
A 50-μL aliquot of each post-dialysis sample from both the plasma and buffer chambers was pipetted into separate LoBind tubes (Eppendorf). The samples from plasma chambers were diluted with 50 μL PBS, while samples from buffer chambers were diluted with C3-depleted, or C3 positive serum (matrix match). All samples were diluted to 100 μL using 4% H3PO4 to dissociate the peptides. […] The eluent was injected into the UPLC-HDMS system consisting of an online ACQUITY UPLC (Waters BEH C18 column, 130 Å, 1.7 μm, 2.1 mm×150 mm) coupled to a SYNAPT G2-S HDMS instrument equipped with an ESI source (capillary voltage was set to 3.2 kV, the cone voltage to 30 V and the source temperature to 120° C.). MS peak areas of the peptide were determined by integration for the quantification (Qu et al., 2013, supra). The unbound fraction of the peptide in plasma (% free) was calculated from the ratio of the buffer side response to the plasma side response. The bound fraction of the compound was calculated as follows: % bound=100−% free.

[4] = tested on: complement activation initiated via the classical pathway; assay: ELISA of immune complex-induced complement activation (classical pathway) in human plasma; format: biochemical
Description: Each peptide was dissolved in water, and its concentration was determined by Nanodrop using the absorbance at 280 nm. […] The percent inhibition was plotted against the peptide concentration, and the resulting data set was fitted to the logistic dose-response function to obtain IC50 values (FIG. 4).

[5] = target: human serum albumin (HSA) (Homo sapiens, UniProt P02768); assay: SPR competition between immobilized ABM2-Cp20 and soluble ibuprofen for HSA; format: binding; settings: concluded from ibuprofen (site II ligand) competition
Description: Data were recorded at 25° C. using PBS-T (10 mM sodium phosphate, 150 mM NaCl, 0.005% Tween-20, pH 7.4) as running buffer, and untreated flow cells were used as a reference surface.

C3 = C3 (Homo sapiens, UniProt P01024); settings: versus earlier compstatin analogs, backbone N-methylation; cited from earlier work
human serum albumin = human serum albumin (Homo sapiens, UniProt P02768); settings: cited from earlier work
[6] = in human; cited from earlier work
[7] = C3-depleted serum with 5 μM purified C3, 24 h, read-out: C3-positive serum % bound
[8] = C3-depleted serum, 24 h, read-out: C3-depleted serum % bound (converted)
[9] = C3-depleted serum with 5 μM purified C3, 24 h, read-out: C3-positive serum % bound (converted)

T1 sequence (P01024 23-667 limits assumed): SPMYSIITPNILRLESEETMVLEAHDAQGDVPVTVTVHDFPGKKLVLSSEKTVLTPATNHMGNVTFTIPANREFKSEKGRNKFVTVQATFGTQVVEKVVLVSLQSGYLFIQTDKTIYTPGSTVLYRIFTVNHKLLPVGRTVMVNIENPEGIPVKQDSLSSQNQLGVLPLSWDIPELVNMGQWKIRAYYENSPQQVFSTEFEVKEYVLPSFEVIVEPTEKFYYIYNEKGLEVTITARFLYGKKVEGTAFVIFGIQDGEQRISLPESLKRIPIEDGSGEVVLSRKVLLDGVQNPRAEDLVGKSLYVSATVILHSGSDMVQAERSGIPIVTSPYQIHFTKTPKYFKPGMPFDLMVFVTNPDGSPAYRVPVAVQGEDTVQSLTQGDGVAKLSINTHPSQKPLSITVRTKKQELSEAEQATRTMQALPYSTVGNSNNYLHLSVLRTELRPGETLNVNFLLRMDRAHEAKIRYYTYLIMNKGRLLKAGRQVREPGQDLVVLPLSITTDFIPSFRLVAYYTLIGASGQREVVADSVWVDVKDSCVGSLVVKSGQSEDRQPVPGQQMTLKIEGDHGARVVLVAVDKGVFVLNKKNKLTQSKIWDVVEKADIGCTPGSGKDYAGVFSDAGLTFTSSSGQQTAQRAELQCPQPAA
T1 sequence (P01024 749-1663 partner limits assumed): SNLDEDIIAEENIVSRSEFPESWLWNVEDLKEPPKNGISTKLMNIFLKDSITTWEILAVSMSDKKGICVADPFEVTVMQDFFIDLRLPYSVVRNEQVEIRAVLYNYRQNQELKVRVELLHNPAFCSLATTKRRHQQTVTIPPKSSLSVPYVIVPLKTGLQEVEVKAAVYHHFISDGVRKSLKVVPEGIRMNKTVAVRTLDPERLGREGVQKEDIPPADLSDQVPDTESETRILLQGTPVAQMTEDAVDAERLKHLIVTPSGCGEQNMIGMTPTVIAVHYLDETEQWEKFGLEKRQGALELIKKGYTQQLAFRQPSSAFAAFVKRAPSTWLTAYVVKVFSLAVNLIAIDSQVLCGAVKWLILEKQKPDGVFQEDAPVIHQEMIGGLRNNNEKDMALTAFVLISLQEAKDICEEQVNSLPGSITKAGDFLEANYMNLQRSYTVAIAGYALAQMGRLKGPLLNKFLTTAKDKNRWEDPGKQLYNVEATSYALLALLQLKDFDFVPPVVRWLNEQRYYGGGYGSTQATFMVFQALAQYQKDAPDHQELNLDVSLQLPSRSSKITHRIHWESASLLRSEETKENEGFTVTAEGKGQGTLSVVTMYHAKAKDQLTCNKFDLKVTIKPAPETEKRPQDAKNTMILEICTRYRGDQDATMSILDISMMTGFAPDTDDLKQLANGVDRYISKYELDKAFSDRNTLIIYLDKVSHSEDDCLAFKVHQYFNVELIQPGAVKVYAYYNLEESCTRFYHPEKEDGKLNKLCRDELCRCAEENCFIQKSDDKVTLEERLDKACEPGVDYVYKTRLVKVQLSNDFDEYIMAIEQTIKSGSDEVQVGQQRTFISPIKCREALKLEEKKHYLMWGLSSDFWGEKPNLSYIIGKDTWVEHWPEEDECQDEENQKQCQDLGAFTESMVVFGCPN
Sequence of human serum albumin (P02768 25-609): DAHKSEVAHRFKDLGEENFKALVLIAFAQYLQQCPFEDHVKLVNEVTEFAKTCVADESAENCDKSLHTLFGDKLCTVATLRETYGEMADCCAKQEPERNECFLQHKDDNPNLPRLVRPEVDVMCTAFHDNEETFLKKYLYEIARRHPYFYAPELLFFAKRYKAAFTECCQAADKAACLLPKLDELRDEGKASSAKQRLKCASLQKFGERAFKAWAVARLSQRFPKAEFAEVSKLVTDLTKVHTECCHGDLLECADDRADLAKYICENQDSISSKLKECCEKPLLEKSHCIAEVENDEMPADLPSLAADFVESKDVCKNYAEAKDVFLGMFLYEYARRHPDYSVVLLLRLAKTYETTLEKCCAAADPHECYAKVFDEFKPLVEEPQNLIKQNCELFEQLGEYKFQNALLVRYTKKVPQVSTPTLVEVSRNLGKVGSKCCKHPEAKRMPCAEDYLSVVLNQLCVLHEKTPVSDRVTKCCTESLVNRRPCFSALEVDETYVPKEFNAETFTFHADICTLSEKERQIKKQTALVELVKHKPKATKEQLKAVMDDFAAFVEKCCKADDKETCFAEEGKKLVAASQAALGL
Sequence of human serum albumin (HSA) (P02768 25-609): as above
Sequence of C3 (P01024 23-1663): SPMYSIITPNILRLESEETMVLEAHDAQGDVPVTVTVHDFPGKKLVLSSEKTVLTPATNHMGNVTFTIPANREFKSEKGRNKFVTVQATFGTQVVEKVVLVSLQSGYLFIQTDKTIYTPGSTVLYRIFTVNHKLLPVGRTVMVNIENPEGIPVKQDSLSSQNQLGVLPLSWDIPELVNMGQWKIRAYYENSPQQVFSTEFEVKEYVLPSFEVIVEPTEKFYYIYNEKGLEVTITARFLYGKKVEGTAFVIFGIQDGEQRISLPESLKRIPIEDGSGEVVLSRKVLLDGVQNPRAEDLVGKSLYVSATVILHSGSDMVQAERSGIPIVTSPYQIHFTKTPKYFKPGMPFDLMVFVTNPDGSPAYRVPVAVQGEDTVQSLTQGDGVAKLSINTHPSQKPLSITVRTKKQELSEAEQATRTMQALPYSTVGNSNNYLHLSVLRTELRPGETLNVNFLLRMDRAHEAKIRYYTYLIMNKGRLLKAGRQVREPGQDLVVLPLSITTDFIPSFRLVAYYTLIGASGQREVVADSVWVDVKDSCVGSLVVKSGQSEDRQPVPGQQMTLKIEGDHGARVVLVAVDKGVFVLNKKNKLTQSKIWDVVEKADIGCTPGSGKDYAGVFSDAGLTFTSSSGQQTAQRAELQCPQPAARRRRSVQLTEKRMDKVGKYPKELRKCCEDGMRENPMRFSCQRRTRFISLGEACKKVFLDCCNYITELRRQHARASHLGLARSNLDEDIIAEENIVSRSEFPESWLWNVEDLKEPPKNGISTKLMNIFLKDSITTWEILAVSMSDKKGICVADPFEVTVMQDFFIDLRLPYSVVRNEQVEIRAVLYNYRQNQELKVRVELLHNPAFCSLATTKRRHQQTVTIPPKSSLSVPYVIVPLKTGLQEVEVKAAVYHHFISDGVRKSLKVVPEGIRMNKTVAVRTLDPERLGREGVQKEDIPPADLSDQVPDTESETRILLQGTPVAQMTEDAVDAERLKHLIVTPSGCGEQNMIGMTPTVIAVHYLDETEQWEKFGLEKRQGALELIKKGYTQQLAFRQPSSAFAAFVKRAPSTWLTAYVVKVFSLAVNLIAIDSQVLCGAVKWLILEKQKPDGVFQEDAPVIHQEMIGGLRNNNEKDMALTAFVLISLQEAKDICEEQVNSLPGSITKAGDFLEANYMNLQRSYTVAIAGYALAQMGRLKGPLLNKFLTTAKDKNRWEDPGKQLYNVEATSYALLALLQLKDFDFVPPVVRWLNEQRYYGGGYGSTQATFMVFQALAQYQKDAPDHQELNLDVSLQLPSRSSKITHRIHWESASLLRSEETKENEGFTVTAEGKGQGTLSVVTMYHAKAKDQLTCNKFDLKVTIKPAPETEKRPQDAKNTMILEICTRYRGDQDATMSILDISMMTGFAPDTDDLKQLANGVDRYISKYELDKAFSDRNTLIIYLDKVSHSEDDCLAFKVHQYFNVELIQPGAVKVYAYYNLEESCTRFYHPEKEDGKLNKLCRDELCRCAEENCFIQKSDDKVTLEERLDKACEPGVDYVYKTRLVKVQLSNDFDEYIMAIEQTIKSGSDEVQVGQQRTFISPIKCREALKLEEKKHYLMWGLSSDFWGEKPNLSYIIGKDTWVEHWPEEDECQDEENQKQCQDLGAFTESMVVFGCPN

Row | Structure (SMILES) | half-life [1] | kd (C3b) | fraction unbound at 24 h, 5 μM [3, 7] | fraction unbound at 24 h, 5 μM [3, 8] | fraction unbound at 24 h, 10 μM [3, 9] | fraction unbound at 24 h, 10 μM [3, 8] | IC50 [4] | other results
1 | CC[C@H](C)[C@H](NC(=O)[C@H](N)Cc1ccc(O)cc1)C(=O)N[C@H]1CSSC[C@@H](C(=O)N(C)[C@H](C(N)=O)[C@@H](C)CC)NC(=O)[C@H](CCCNC(=N)N)NC(=O)[C@H](Cc2c[nH]cn2)NC(=O)[C@H](C)NC(=O)CN(C)C(=O)[C@H](Cc2c[nH]c3ccccc23)NC(=O)[C@H](CC(=O)O)NC(=O)[C@H](CCC(N)=O)NC(=O)[C@H](Cc2cn(C)c3ccccc23)NC(=O)[C@H](C(C)C)NC1=O [Cp40, (D)Tyr-Ile-[Cys-Val-Trp(Me)-Gln-Asp-Trp-Sar-Ala-His-Arg-Cys]-mIle-NH2, reference compound] | 12 h | 1.3 ± 0.2 10^−3 s^−1 |  |  |  |  |  | 
2 | CC[C@H](C)[C@H](NC(=O)CCCCCOP(=O)(O)OC1CCC(c2ccccc2)(c2ccccc2)CC1)C(=O)N[C@H]1CSSC[C@@H](C(=O)N(C)[C@H](C(N)=O)[C@@H](C)CC)NC(=O)[C@H](CCCNC(=N)N)NC(=O)[C@H](Cc2c[nH]cn2)NC(=O)[C@H](C)NC(=O)CN(C)C(=O)[C@H](Cc2c[nH]c3ccccc23)NC(=O)[C@H](CC(=O)O)NC(=O)[C@H](CCC(N)=O)NC(=O)[C@H](Cc2cn(C)c3ccccc23)NC(=O)[C@H](C(C)C)NC1=O [ABM2-Cp20, ABM2-Ile-[Cys-Val-Trp(Me)-Gln-Asp-Trp-Sar-Ala-His-Arg-Cys]-mIle-NH2] |  |  | < 0.01 | < 0.01 | < 0.01 | < 0.01 | 0.17 ± 0.11 µM | Kd (baboon albumin): 106 ± 3 µM; solubility [2]: lower solubility; albumin binding site [5]: binds primarily to site II
3 | CC[C@H](C)[C@H](NC(C)=O)C(=O)N[C@H]1CSSC[C@@H](C(=O)N(C)[C@H](C(N)=O)[C@@H](C)CC)NC(=O)[C@H](CCCNC(=N)N)NC(=O)[C@H](Cc2c[nH]cn2)NC(=O)[C@H](C)NC(=O)CN(C)C(=O)[C@H](Cc2c[nH]c3ccccc23)NC(=O)[C@H](CC(=O)O)NC(=O)[C@H](CCC(N)=O)NC(=O)[C@H](Cc2cn(C)c3ccccc23)NC(=O)[C@H](C(C)C)NC1=O [Cp20, Ac-Ile-[Cys-Val-Trp(Me)-Gln-Asp-Trp-Sar-Ala-His-Arg-Cys]-mIle-NH2, reference compound] | 9 h | 6.7 ± 2.9 10^−3 s^−1 | < 0.01 | 0.93 | 0.16 | 0.97 | 0.26 ± 0.12 µM | improved affinity (C3): 10 fold; kon (C3b; read-out: ka): 2.3e+06 ± 700000 M⁻¹ s⁻¹
4 | CC[C@H](C)[C@H](NC(=O)[C@@H](Cc1ccc(O)cc1)NC(=O)CCCCCOP(=O)(O)OC1CCC(c2ccccc2)(c2ccccc2)CC1)C(=O)N[C@H]1CSSC[C@@H](C(=O)N(C)[C@H](C(N)=O)[C@@H](C)CC)NC(=O)[C@H](CCCNC(=N)N)NC(=O)[C@H](Cc2c[nH]cn2)NC(=O)[C@H](C)NC(=O)CN(C)C(=O)[C@H](Cc2c[nH]c3ccccc23)NC(=O)[C@H](CC(=O)O)NC(=O)[C@H](CCC(N)=O)NC(=O)[C@H](Cc2cn(C)c3ccccc23)NC(=O)[C@H](C(C)C)NC1=O [ABM2-Cp40] |  | 0.5 ± 0.2 10^−3 s^−1 |  |  |  |  | 0.08 ± 0.03 µM | 
5 | O=C([O-])CN(CCN(CC(=O)[O-])CC(COP(=O)([O-])OC1CCC(c2ccccc2)(c2ccccc2)CC1)N(CC(=O)[O-])CC(=O)[O-])CC(=O)[O-].[Gd+3].[Na+].[Na+].[Na+] (centres unmarked) [MS-325, gadofosveset trisodium] |  |  |  |  |  |  |  | Kd (human serum albumin): 164 µM; intravascular half-life [6]: 18.5 ± 3 h

Reference: patent US10213476B2, “Compstatin analogs with improved potency and pharmacokinetic properties” (The Trustees of the University of Pennsylvania, priority 2014, dated 2019)
